The test system of this test is biological contamination of microcapsule compositions. The experiment in a line: Preservation of microcapsule compositions against biological contamination over time by conventional preservation agents. To be noted: agent used alone; one month or more.

Take `O=C(O)c1ccccc1` [benzoic acid]: the “Prevention of biological contamination of microcapsule compositions over time” value was “unable, when used alone, to prevent the biological contamination of microcapsule compositions over time”.
The result for p-hydroxybenzoic esters reads “unable, when used alone, to prevent the biological contamination of microcapsule compositions over time”.

(Values after patent US20250387771A1, “COMPOSITION COMPRISING BIODEGRADABLE MICROCAPSULES” (priority 2022, published 2025).)
